Reference: the supplement of paper PMC10307832

Experiments:
Assay in all cases: relative viability (nuclei count vs DMSO), 5 days (fraction); higher = more cells survive
EKVX = system: EKVX
Summary of the method: (§1)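 Lung cancer cell lines in 1536-well plates were dosed by pin tool the day after seeding, either with one drug alone or with a fixed anchor-drug dose plus five library-drug doses (not always all listed) in √10 steps. After 5 days, cells were fixed and their nuclei stained in one step (final 0.05% Triton X-100, 1% formaldehyde, 1 ug/ml Hoechst), then counted on 4× images. Relative viability is the nuclei count in treated wells divided by that in vehicle wells. Values are medians of duplicate plates.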

EMC-BAC-2 = system: EMC-BAC-2
Summary of the method: as §1

EPLC-272H = system: EPLC-272H
Summary of the method: as §1

HCC-78 = system: HCC-78
Summary of the method: as §1

HCC-827 = system: HCC-827
Summary of the method: as §1

LK-2 = system: LK-2
Summary of the method: as §1

LU99A = system: LU99A
Summary of the method: as §1

LXF-289 = system: LXF-289
Summary of the method: as §1

NCI-H1563 = system: NCI-H1563
Summary of the method: as §1

NCI-H1666 = system: NCI-H1666
Summary of the method: as §1

NCI-H1975 = system: NCI-H1975
Summary of the method: as §1

NCI-H2126 = system: NCI-H2126
Summary of the method: as §1

NCI-H23 = system: NCI-H23
Summary of the method: as §1

NCI-H2405 = system: NCI-H2405
Summary of the method: as §1

NCI-H322M = system: NCI-H322M
Summary of the method: as §1

PC-14 = system: PC-14
Summary of the method: as §1

RERF-LC-KJ = system: RERF-LC-KJ
Summary of the method: as §1

SK-LU-1 = system: SK-LU-1
Summary of the method: as §1

SW 1573 = system: SW 1573
Summary of the method: as §1

Question: How did the relative viability (EKVX; first compound 0.01 µM) turn out when `CCN(CC)CCCCNc1ncc2cc(-c3cc(OC)cc(OC)c3)c(NC(=O)NC(C)(C)C)nc2n1` + CS(=O)(=O)CCNCc1ccc(-c2ccc3ncnc(Nc4ccc(OCc5cccc(F)c5)c(Cl)c4)c3c2)o1 [Lapatinib] (partner 2 µM) was run?
Answer: 0.187

Question: And the relative viability (EKVX; first compound 0.03162 µM)?
Answer: 0.181

Question: And the relative viability (EKVX; first compound 0.1 µM)?
Answer: 0.178

Question: What about the relative viability (EKVX; first compound 0.3162 µM) of the same molecule?
Answer: 0.207

Question: What about the relative viability (EKVX; first compound 1 µM) of the same molecule?
Answer: 0.207

Question: And the relative viability (EMC-BAC-2; first compound 0.01 µM)?
Answer: 0.946

Question: What about the relative viability (EMC-BAC-2; first compound 0.03162 µM) of the same molecule?
Answer: 0.941

Question: And the relative viability (EMC-BAC-2; first compound 0.1 µM)?
Answer: 0.961

Question: And the relative viability (EMC-BAC-2; first compound 0.3162 µM)?
Answer: 0.999

Question: What about the relative viability (EMC-BAC-2; first compound 1 µM) of the same molecule?
Answer: 0.859

Question: What about the relative viability (EPLC-272H; first compound 0.01 µM) of the same molecule?
Answer: 1.05

Question: What about the relative viability (EPLC-272H; first compound 0.1 µM) of the same molecule?
Answer: 0.956

Question: And the relative viability (EPLC-272H; first compound 0.3162 µM)?
Answer: 0.922

Question: And the relative viability (EPLC-272H; first compound 1 µM)?
Answer: 0.642

Question: What about the relative viability (HCC-78; first compound 0.03162 µM) of the same molecule?
Answer: 1.09

Question: What about the relative viability (HCC-78; first compound 0.1 µM) of the same molecule?
Answer: 1.09

Question: And the relative viability (HCC-78; first compound 0.3162 µM)?
Answer: 0.87

Question: What about the relative viability (HCC-78; first compound 1 µM) of the same molecule?
Answer: 0.748

Question: What about the relative viability (HCC-827; first compound 0.01 µM) of the same molecule?
Answer: 0.214

Question: And the relative viability (HCC-827; first compound 0.03162 µM)?
Answer: 0.206

Question: What about the relative viability (HCC-827; first compound 0.1 µM) of the same molecule?
Answer: 0.177

Question: What about the relative viability (HCC-827; first compound 0.3162 µM) of the same molecule?
Answer: 0.177

Question: And the relative viability (HCC-827; first compound 1 µM)?
Answer: 0.172

Question: What about the relative viability (LK-2; first compound 0.01 µM) of the same molecule?
Answer: 0.98

Question: What about the relative viability (LK-2; first compound 0.03162 µM) of the same molecule?
Answer: 0.814

Question: What about the relative viability (LK-2; first compound 0.1 µM) of the same molecule?
Answer: 0.966

Question: What about the relative viability (LK-2; first compound 0.3162 µM) of the same molecule?
Answer: 0.645

Question: And the relative viability (LK-2; first compound 1 µM)?
Answer: 0.303

Question: And the relative viability (LU99A; first compound 0.01 µM)?
Answer: 0.946

Question: What about the relative viability (LU99A; first compound 0.03162 µM) of the same molecule?
Answer: 0.924

Question: What about the relative viability (LU99A; first compound 0.1 µM) of the same molecule?
Answer: 1.17

Question: What about the relative viability (LU99A; first compound 0.3162 µM) of the same molecule?
Answer: 1.14

Question: What about the relative viability (LU99A; first compound 1 µM) of the same molecule?
Answer: 0.93

Question: And the relative viability (LXF-289; first compound 0.01 µM)?
Answer: 0.893

Question: What about the relative viability (LXF-289; first compound 0.03162 µM) of the same molecule?
Answer: 0.944

Question: What about the relative viability (LXF-289; first compound 0.1 µM) of the same molecule?
Answer: 0.941

Question: What about the relative viability (LXF-289; first compound 0.3162 µM) of the same molecule?
Answer: 0.865

Question: And the relative viability (LXF-289; first compound 1 µM)?
Answer: 0.599

Question: What about the relative viability (NCI-H1563; first compound 0.01 µM) of the same molecule?
Answer: 0.884

Question: What about the relative viability (NCI-H1563; first compound 0.03162 µM) of the same molecule?
Answer: 0.895

Question: And the relative viability (NCI-H1563; first compound 0.1 µM)?
Answer: 0.849

Question: What about the relative viability (NCI-H1563; first compound 0.3162 µM) of the same molecule?
Answer: 0.792

Question: And the relative viability (NCI-H1563; first compound 1 µM)?
Answer: 0.621

Question: What about the relative viability (NCI-H1666; first compound 0.01 µM) of the same molecule?
Answer: 0.819

Question: And the relative viability (NCI-H1666; first compound 0.03162 µM)?
Answer: 0.62

Question: What about the relative viability (NCI-H1666; first compound 0.1 µM) of the same molecule?
Answer: 0.604

Question: What about the relative viability (NCI-H1666; first compound 0.3162 µM) of the same molecule?
Answer: 0.684

Question: And the relative viability (NCI-H1666; first compound 1 µM)?
Answer: 0.498

Question: What about the relative viability (NCI-H1975; first compound 0.01 µM) of the same molecule?
Answer: 1.02

Question: And the relative viability (NCI-H1975; first compound 0.03162 µM)?
Answer: 0.882

Question: And the relative viability (NCI-H1975; first compound 0.1 µM)?
Answer: 0.952

Question: What about the relative viability (NCI-H1975; first compound 0.3162 µM) of the same molecule?
Answer: 1.12

Question: And the relative viability (NCI-H1975; first compound 1 µM)?
Answer: 0.693

Question: And the relative viability (NCI-H2126; first compound 0.01 µM)?
Answer: 0.786

Question: And the relative viability (NCI-H2126; first compound 0.03162 µM)?
Answer: 0.72

Question: What about the relative viability (NCI-H2126; first compound 0.1 µM) of the same molecule?
Answer: 0.796

Question: And the relative viability (NCI-H2126; first compound 0.3162 µM)?
Answer: 0.808

Question: What about the relative viability (NCI-H2126; first compound 1 µM) of the same molecule?
Answer: 0.726

Question: What about the relative viability (NCI-H23; first compound 0.01 µM) of the same molecule?
Answer: 1.09

Question: And the relative viability (NCI-H23; first compound 0.03162 µM)?
Answer: 1.12

Question: What about the relative viability (NCI-H23; first compound 0.1 µM) of the same molecule?
Answer: 1.36

Question: What about the relative viability (NCI-H23; first compound 0.3162 µM) of the same molecule?
Answer: 1.1

Question: What about the relative viability (NCI-H23; first compound 1 µM) of the same molecule?
Answer: 0.961

Question: And the relative viability (NCI-H2405; first compound 0.01 µM)?
Answer: 0.926

Question: And the relative viability (NCI-H2405; first compound 0.03162 µM)?
Answer: 1.05

Question: What about the relative viability (NCI-H2405; first compound 0.1 µM) of the same molecule?
Answer: 1.16

Question: And the relative viability (NCI-H2405; first compound 0.3162 µM)?
Answer: 1.28

Question: What about the relative viability (NCI-H2405; first compound 1 µM) of the same molecule?
Answer: 1.04

Question: What about the relative viability (NCI-H322M; first compound 0.01 µM) of the same molecule?
Answer: 0.549

Question: And the relative viability (NCI-H322M; first compound 0.03162 µM)?
Answer: 0.584

Question: And the relative viability (NCI-H322M; first compound 0.1 µM)?
Answer: 0.598

Question: What about the relative viability (NCI-H322M; first compound 0.3162 µM) of the same molecule?
Answer: 0.619

Question: What about the relative viability (NCI-H322M; first compound 1 µM) of the same molecule?
Answer: 0.528

Question: What about the relative viability (PC-14; first compound 0.01 µM) of the same molecule?
Answer: 0.318

Question: What about the relative viability (PC-14; first compound 0.03162 µM) of the same molecule?
Answer: 0.373

Question: What about the relative viability (PC-14; first compound 0.1 µM) of the same molecule?
Answer: 0.391

Question: And the relative viability (PC-14; first compound 0.3162 µM)?
Answer: 0.362

Question: What about the relative viability (PC-14; first compound 1 µM) of the same molecule?
Answer: 0.237

Question: And the relative viability (RERF-LC-KJ; first compound 0.01 µM)?
Answer: 0.854

Question: And the relative viability (RERF-LC-KJ; first compound 0.03162 µM)?
Answer: 0.893

Question: And the relative viability (RERF-LC-KJ; first compound 0.1 µM)?
Answer: 0.907

Question: What about the relative viability (RERF-LC-KJ; first compound 0.3162 µM) of the same molecule?
Answer: 0.949

Question: And the relative viability (RERF-LC-KJ; first compound 1 µM)?
Answer: 0.879

Question: And the relative viability (SK-LU-1; first compound 0.01 µM)?
Answer: 0.985

Question: What about the relative viability (SK-LU-1; first compound 0.03162 µM) of the same molecule?
Answer: 0.975

Question: And the relative viability (SK-LU-1; first compound 0.1 µM)?
Answer: 0.947

Question: And the relative viability (SK-LU-1; first compound 0.3162 µM)?
Answer: 1.2

Question: And the relative viability (SK-LU-1; first compound 1 µM)?
Answer: 0.638

Question: And the relative viability (SW 1573; first compound 0.01 µM)?
Answer: 1.11

Question: What about the relative viability (SW 1573; first compound 0.03162 µM) of the same molecule?
Answer: 1.1

Question: What about the relative viability (SW 1573; first compound 0.1 µM) of the same molecule?
Answer: 1.19

Question: What about the relative viability (SW 1573; first compound 0.3162 µM) of the same molecule?
Answer: 0.978

Question: What about the relative viability (SW 1573; first compound 1 µM) of the same molecule?
Answer: 1.12
